Reference: patent US20160287696A1, “PAN POLLEN IMMUNOGENS AND METHODS AND USES FOR IMMUNE RESPONSE MODULATION” (LA JOLLA INSTITUTE FOR ALLERGY AND IMMUNOLOGY, priority 2013, published 2016)
“And” between values parts separate entries of the source, which are not always exact repeats. Equal values may be shown once.

Columns and labels:
[1] = system: cultured PBMCs of the allergic donors; experiment: ELISPOT of IL-5 or IFNg production by cultured PBMCs of TG allergic donors in response to peptide; format: cell-based, human; settings: for # Th+: Table 7, peptides per NTGA recognized by T cells of grass allergic donors (n=20)
Source text: Table 1 indicates for each of the 397 PG+ peptides in which non-grass pollen species a matching peptide with either less than 3, less than 2 or zero mismatches are found. The number of TG grass allergic donors (n=20) with an in vitro T cell response to the TG peptide sequence is also shown.
A set of 93 proteins from Timothy grass (TG) pollen and the assembly of 822 peptides (15 mers) predicted to promiscuously bind HLA class II molecules shown in Table 9 and the immune reactivity in allergic donors have been reported in PCT application WO 2013/119863. […] Immune reactivity was determined by the production of IL-5 or IFNg from cultured PBMCs of the allergic donors in response to stimulation with a peptide and IL-5 and IFNg were measured by ELISPOT as described in Oseroff C et al, 2010.
In short, T cell immune reactivity was determined using PBMCs isolated from study participants and stored in liquid nitrogen until further use. For experimental testing, PBMCs were thawed and expanded in vitro with TG pollen extract (50 μg/mL) or the peptide pool ([…]). The TG extract and peptide pools had each been previously titrated to determine optimal stimulation concentrations.
Cytokine production by cultured PBMCs in response to antigen stimulation was measured by ELISPOT. Cells (1×10^5 cells/well) were plated and incubated with peptide (10 μg/mL), the peptide pool (5 μg/mL), or the TG extract (50 μg/mL). Phytohaemagglutinin (10 μg/mL) and medium alone were used as positive and negative controls, respectively. Samples were considered to produce a cytokine if 100 spot-forming cells (SFCs)/10^6 PBMCs were detected, with P .05 and a stimulation index of 2 or more. Criteria for individual peptides were the same except that a minimum of 20 SFCs were required for a sample to be counted as positive.
Table 3 lists the 397 PG+ peptides and indicates for each non-grass pollen species whether a matching peptide with either less than 3, less than 2 or zero mismatches could be detected. The immune reactivity of the TG peptide was assessed as the number of TG grass allergic donors (n=20) having in vitro T cell response against the TG peptide.

[2] = system: PBMCs from Phl p reactive donors; experiment: Cross-reactivity: IL-5 ELISPOT of PBMCs expanded 14 days with individual peptides, response to pollen extracts; format: cell-based, human; settings: for Amb p % Reactivity: Amb p (weed) pollen extract; for Amb p % Reactivity / Ant o % Reactivity / Bet v % Reactivity / Cyn d % Reactivity / Lol p % Reactivity / Ole e % Reactivity / Phl p % Reactivity / Pla l % Reactivity / Poa p % Reactivity / Que a % Reactivity: reactivity of extract as percentage of reactivity to the peptide, PBMCs expanded 14 days with the peptide; for Ant o % Reactivity: Ant o (grass) pollen extract; for Bet v % Reactivity: Bet v (tree) pollen extract; for Cyn d % Reactivity: Cyn d (grass) pollen extract; for Lol p % Reactivity: Lol p (grass) pollen extract; for Ole e % Reactivity: Ole e (tree) pollen extract; for Phl p % Reactivity: Phl p (grass) pollen extract; for Pla l % Reactivity: Pla l (weed) pollen extract; for Poa p % Reactivity: Poa p (grass) pollen extract; for Que a % Reactivity: Que a (tree) pollen extract; for Controls, Irrelevant Pool: control: response to irrelevant pool of cells expanded with the peptide; for Controls, Relevant Pool: control: response to relevant pool of cells expanded with the peptide; for % Reactivity, Fra e: reactivity of Fra e (tree) pollen extract as percentage of the reactivity to the peptide, cells expanded with the peptide for 14 days
Description: For each peptide, TG allergic donors were selected that reacted to the peptide after expanding PBMCs in vitro with TG extract. […] Reponses to extracts and peptide pools are expressed as the relative fraction of the response to the peptide itself, and capped at 100%.
Each peptide was used to stimulate cells and cross reactivity was tested for extracts from each pollen species. The number of mismatches (# of mm) for each peptide compared to the pollen species and the reactivity of the extracts as a percentage of the reactivity compared to the peptide are shown.
PBMCs from Phl p reactive donors were expanded with individual PG+ peptides as well as peptides derived from major allergens of Phl p for 14 days (peptides shown in Table 10). For each peptide, the mismatch to a corresponding sequence in a non-grass pollen species or a pollen species other than Phl p were determined. Cytokine IL-5 responses were measured in response to the peptide itself, Phl p extract and extracts of the other pollen species. Reponses to extracts and peptide pools were expressed as the relative fraction of the response to the peptide itself and plotted as a function of conservation of the peptide in the different extracts (FIG. 1).

Substance	No of PG+ & th+ peptides per NTGA ([1]; Table 6, PG+ peptides recognized by T cells of grass allergic donors (n=20))	No of PP & Th+ peptides per NTGA ([1]; Table 6, PP peptides recognized by T cells of grass allergic donors (n=20))	# Th+ [1]	Amb p % Reactivity [2] [%]	Ant o % Reactivity [2]	Bet v % Reactivity [2]	Cyn d % Reactivity [2]	Lol p % Reactivity [2]	Ole e % Reactivity [2]	Phl p % Reactivity [2]	Pla l % Reactivity [2]	Poa p % Reactivity [2]	Que a % Reactivity [2]	Controls, Irrelevant Pool [2]	Controls, Relevant Pool [2]	% Reactivity, Fra e [2]
5 (KLAMQEFMILPTGAS) [compound 5]	0	0	0	–	–	–	–	–	–	–	–	–	–	–	–	–
12 (RAAVPSGASTGVYEA) [compound 12]	–	–	0	–	–	–	–	–	–	–	–	–	–	–	–	–
AVMLTFDNAGMWNVR	–	–	–	2	9%	0%	18%	36%	3%	4%	9%	25%	0%	0	100	0%
DAYVATLTEALRVIA	–	–	–	–	95% and 90% and 58% and 68%	–	–	–	–	–	–	–	10% and 8% and 0%	–	100 and 96 and 67	–
DINVGFKAAVAAAAG	–	–	–	–	–	0% and 2%	–	–	–	–	0% and 3% and 10%	–	2% and 0%	–	53 and 100 and 95	0% and 4% and 1%
DIYNYMEPYVSKVDP	–	–	–	37	–	0%	83%	100%	82%	30%	17%	23%	0%	49	100	49%
EEWEPLTKKGNVWEV	–	–	–	49	100%	3%	7%	100%	13%	100%	23%	100%	1%	32	100	76%
FKAAVAAAAGAPPAD	–	–	–	15	62%	22%	31%	68%	39%	2%	2%	26%	6%	23	100	38%
FPIVQRFLEGASSID	–	–	–	–	89% and 100%	5% and 0%	22% and 39%	–	–	–	–	95% and 100%	0%	100	–	–
GELELQFRRVKCKYP	–	–	–	–	–	–	–	–	–	–	–	–	–	–	88 and 53 and 92 and 100	–
GSDEKNLALSIKYNK	–	–	–	5	58%	0%	8%	66%	10%	32%	0%	67%	0%	19	87	4%
IGSFFYFPSIGMQRT	–	–	–	0	3%	2%	9%	6%	1%	0%	2%	2%	1%	1	63	1%
INVGFKAAVAAAASV	–	–	–	–	–	1% and 0%	–	–	–	–	0% and 9%	–	0% and 2%	–	100 and 70 and 60	–
LAKYKANWIEIMRIK	–	–	–	–	14%	–	47%	33%	–	6%	–	22%	–	19	31	14%
LIEKINAGFKAAVAA	–	–	–	–	–	0% and 9%	1% and 9%	39% and 77%	2% and 12%	–	–	41% and 79%	0% and 3%	14 and 20	83 and 90	–
MRNVFDDVVPADFKV	–	–	–	–	–	2% and 3% and 1% and 0%	–	88% and 82% and 73% and 72% and 100%	–	–	–	–	–	–	81 and 94 and 98 and 100	–
NAGFKAAVAAAAVVP	–	–	–	–	–	–	–	–	–	–	–	–	–	–	77 and 100	–
NGSQFFLCTAKTAWL	–	–	–	–	–	1%	–	–	4% and 5%	–	1% and 2%	–	–	–	100 and 89	3% and 0%
NLALSIKYNKEGDSM	–	–	–	76	0%	0%	76%	76%	78%	57%	41%	100%	0%	0	100	0%
NPMTVFWSKMAQSMT	–	–	–	0	0%	0%	1%	1%	0%	0%	0%	0%	0%	1	79	0%
NVFDEVIPTAFTVGK	–	–	–	–	–	2% and 0%	0%	96% and 100%	–	75% and 81%	–	–	0%	17 and 28	100	–
NVWEVKSSKPLVGPF	–	–	–	–	–	1% and 2% and 5% and 4% and 0%	–	–	–	–	–	–	–	–	100 and 68 and 94	0%
QYAKEIWGITANPVP	–	–	–	83	2%	73%	10%	24%	44%	–	15%	22%	32%	7	100	12%
SDAKTLVLNIKYTRP	–	–	–	–	–	–	–	–	–	–	–	–	–	–	88 and 100 and 81 and 80	–
STWYGKPTGAGPKDN	–	–	–	–	51% and 64%	0%	–	64% and 40%	–	–	–	–	1% and 0%	–	–	1% and 0%
